# Article PMC10712727, “Safety, Tolerability, and Pharmacokinetics of Senaparib, a Novel PARP1/2 Inhibitor, in Chinese Patients With Advanced Solid Tumors: A Phase I Trial” (The Oncologist, 2023)
# Test: Plasma pharmacokinetics after single-dose administration (HPLC-MS/MS)
# Type: in vivo, human
# Procedure: Dose escalation was conducted using a modified Fibonacci 3 + 3 method (Supplementary Fig. […] At a given dose level, each patient received a single dose of senaparib followed by a 7-day washout period. They then entered a continuous dosing period to confirm the safety and PK profile, in which they received senaparib QD from day 1 to day 21 of each 3-week cycle. Progression to the next higher dose required approval from the Data Safety Monitoring Committee (DSMC) upon review of the safety and PK data of the previous dose. A 50-mg twice-daily (BID) dosing group was added (planned enrollment, n = 6 patients) based on a DSMC review of the safety, PK, and efficacy analysis of the completed QD dose groups in the phase I clinical trial of senaparib dose escalation in Australia (NCT03507543), which commenced prior to the start of this trial. Safety was assessed by recording the incidence of dose-limiting toxicities (DLTs), and the incidence, nature, severity (graded per National Cancer Institute Common Terminology Criteria for Adverse Events version 4.03 [NCI CTCAE v4.03][18]), and relatedness of treatment-emergent adverse events (TEAEs). DLTs were predefined toxicities (Supplementary Table S2) recorded over the 7 days following the single-dose administration of senaparib and during the first treatment cycle (day 1-day 21) for each dose group in the dose-escalation period only. […] Senaparib PK parameters were derived from blood samples collected from patients after the single administration, and at regular intervals during the first cycle of the dose-escalation and dose-expansion periods. Plasma concentrations of senaparib were determined using high-performance liquid chromatography-tandem mass spectrometry. […] There was no formal sample size calculation based on statistical hypothesis testing for this study; the planned enrolment was approximately 30-60 patients across the dose-escalation and dose-expansion cohorts. The actual number in the dose-escalation cohort was adjusted based on the number of dose cohorts required for the modified Fibonacci dose-escalation design and the determined MTD. Definitions for all analysis populations (safety, DLT, PK, and efficacy [intent-to-treat, ITT]) are provided in Supplementary Table S2. No statistical tests were performed; patient demographic and baseline characteristics, safety/tolerability, PK parameters, and efficacy were evaluated descriptively. ORR and DCR and their 95% CIs were calculated for each group using the exact probability method. Kaplan-Meier statistics were used to estimate DOR and PFS, and their 95% CIs for each dose group separately. Dose linearity was explored based on the single-dose data of area under the time-concentration curve (AUC) and maximum plasma concentration (Cmax) using the power model (Y = α × dose β) for the dose range 2-80 mg on a log-transformed scale. The following criterion was used to determine whether dose proportionality was met: if the (2-sided) 90% CI for β was wholly contained within the interval (1 + log(0.5)/log(r), 1 + log(2)/log(r)), then dose proportionality was supported. Here, r was defined as the ratio of the highest to lowest dose. All data analyses were carried out using SAS EG7.1 or higher or (for PK parameters) WinNonlin 7.0 or higher.
smiles,measurement,setting,value
O=C(c1cc(Cn2c(=O)[nH]c(=O)c3c(F)cccc32)ccc1F)N1CCN(c2ncccn2)CC1 [Senaparib],"Elimination half-life, range","human, in vivo",5.1 to 24.3 h
same,"Mean apparent clearance, range across dose groups","human, in vivo",1.0 to 6.3 L/h
same,"Mean volume of distribution, range across dose groups","human, in vivo",15.5 to 88.7 L
same,"Median time to Cmax, range across dose groups","human, in vivo",0.5 to 6.0 h
same,"AUC0-inf, mean±SD","human, in vivo, 2 mg",1754.1 ng·h/mL
same,"AUC0-t, mean±SD","human, in vivo, 2 mg",1462.4 ng·h/mL
same,"CL/F, mean±SD","human, in vivo, 2 mg",1.1 L/h
same,"Cmax, mean±SD","human, in vivo, 2 mg",177.0 ng/mL
same,"Tmax, median (range)","human, in vivo, 2 mg",1.0 (1.0-1.0) h
same,"Vd/F, mean±SD","human, in vivo, 2 mg",21.3 L
same,"t½, median (range)","human, in vivo, 2 mg",13.0 (13.0-13.0) h
same,"λz, mean±SD","human, in vivo, 2 mg",5.3 h⁻¹
same,"AUC0-inf, mean±SD","human, in vivo, 5 mg",4107.2 ± 2303.2 ng·h/mL
same,"AUC0-t, mean±SD","human, in vivo, 5 mg",3912.7 ± 2180.7 ng·h/mL
same,"CL/F, mean±SD","human, in vivo, 5 mg",1.5 ± 0.7 L/h
same,"Cmax, mean±SD","human, in vivo, 5 mg",378.7 ± 76.1 ng/mL
same,"Tmax, median (range)","human, in vivo, 5 mg",1.9 (1.9-2.0) h
same,"Vd/F, mean±SD","human, in vivo, 5 mg",15.5 ± 3.5 L
same,"t½, median (range)","human, in vivo, 5 mg",7.7 (5.8-10.8) h
same,"λz, mean±SD","human, in vivo, 5 mg",5.2 ± 4.6 h⁻¹
same,"AUC0-inf, mean±SD","human, in vivo, 10 mg",9954.7 ± 1274.9 ng·h/mL
same,"AUC0-t, mean±SD","human, in vivo, 10 mg",9053.7 ± 887.5 ng·h/mL
same,"CL/F, mean±SD","human, in vivo, 10 mg",1.0 ± 0.1 L/h
same,"Cmax, mean±SD","human, in vivo, 10 mg",606.7 ± 93.5 ng/mL
same,"Tmax, median (range)","human, in vivo, 10 mg",4.0 (2.0-4.0) h
same,"Vd/F, mean±SD","human, in vivo, 10 mg",19.6 ± 0.8 L
same,"t½, median (range)","human, in vivo, 10 mg",14.4 (11.0-15.2) h
same,"λz, mean±SD","human, in vivo, 10 mg",5.2 ± 0.9 h⁻¹
same,"AUC0-inf, mean±SD","human, in vivo, 20 mg",18 955.2±3835.6 h*ng/mL
same,"AUC0-t, mean±SD","human, in vivo, 20 mg",16 945.0±11 287.2 h*ng/mL
same,"CL/F, mean±SD","human, in vivo, 20 mg",1.7 ± 1.4 L/h
same,"Cmax, mean±SD","human, in vivo, 20 mg",1453.3 ± 408.1 ng/mL
same,"Tmax, median (range)","human, in vivo, 20 mg",1.9 (1.8-1.9) h
same,"Vd/F, mean±SD","human, in vivo, 20 mg",19.1 ± 4.5 L
same,"t½, median (range)","human, in vivo, 20 mg",11.2 (5.1-17.1) h
same,"λz, mean±SD","human, in vivo, 20 mg",3.5 ± 3.1 h⁻¹
same,"AUC0-inf, mean±SD","human, in vivo, 40 mg",16 904.8±4182.4 h*ng/mL
same,"AUC0-t, mean±SD","human, in vivo, 40 mg",16 428.2±3762.6 h*ng/mL
same,"CL/F, mean±SD","human, in vivo, 40 mg",2.5 ± 0.7 L/h
same,"Cmax, mean±SD","human, in vivo, 40 mg",1680.0 ± 148.0 ng/mL
same,"Tmax, median (range)","human, in vivo, 40 mg",1.8 (1.0-1.8) h
same,"Vd/F, mean±SD","human, in vivo, 40 mg",30.9 ± 2.6 L
same,"t½, median (range)","human, in vivo, 40 mg",9.3 (7.3-10.2) h
same,"λz, mean±SD","human, in vivo, 40 mg",7.9 ± 1.4 h⁻¹
same,"AUC0-inf, mean±SD","human, in vivo, 50 mg",35 588.9±27 788.9 h*ng/mL
same,"AUC0-t, mean±SD","human, in vivo, 50 mg",12 067.8±5895.4 h*ng/mL
same,"CL/F, mean±SD","human, in vivo, 50 mg",2.4 ± 2.0 L/h
same,"Cmax, mean±SD","human, in vivo, 50 mg",1560.0 ± 564.3 ng/mL
same,"Tmax, median (range)","human, in vivo, 50 mg",0.7 (0.5-3.5) h
same,"Vd/F, mean±SD","human, in vivo, 50 mg",36.4 ± 8.6 L
same,"t½, median (range)","human, in vivo, 50 mg",16.5 (5.7-24.3) h
same,"λz, mean±SD","human, in vivo, 50 mg",3.3 ± 2.9 h⁻¹
same,"AUC0-inf, mean±SD","human, in vivo, 60 mg",25 575.8±10 554.7 h*ng/mL
same,"AUC0-t, mean±SD","human, in vivo, 60 mg",24 929.7±9991.9 h*ng/mL
same,"CL/F, mean±SD","human, in vivo, 60 mg",2.6 ± 0.9 L/h
same,"Cmax, mean±SD","human, in vivo, 60 mg",2476.7 ± 342.7 ng/mL
same,"Tmax, median (range)","human, in vivo, 60 mg",2.0 (2.0-3.6) h
same,"Vd/F, mean±SD","human, in vivo, 60 mg",32.0 ± 8.8 L
same,"t½, median (range)","human, in vivo, 60 mg",8.5 (7.9-9.9) h
same,"λz, mean±SD","human, in vivo, 60 mg",8.0 ± 0.9 h⁻¹
same,"AUC0-inf, mean±SD","human, in vivo, 80 mg",76 255.9±33 943.0 h*ng/mL
same,"AUC0-t, mean±SD","human, in vivo, 80 mg",62 385.0±22 693.1 h*ng/mL
same,"CL/F, mean±SD","human, in vivo, 80 mg",1.2 ± 0.6 L/h
same,"Cmax, mean±SD","human, in vivo, 80 mg",3860.0 ± 1475.0 ng/mL
same,"Tmax, median (range)","human, in vivo, 80 mg",2.0 (2.0-2.0) h
same,"Vd/F, mean±SD","human, in vivo, 80 mg",30.6 ± 14.5 L
same,"t½, median (range)","human, in vivo, 80 mg",17.0 (13.3-23.7) h
same,"λz, mean±SD","human, in vivo, 80 mg",4.1 ± 1.1 h⁻¹
same,"AUC0-inf, mean±SD","human, in vivo, 100 mg",40 487.6±20 226.7 h*ng/mL
same,"AUC0-t, mean±SD","human, in vivo, 100 mg",38 505.2±18 191.9 h*ng/mL
same,"CL/F, mean±SD","human, in vivo, 100 mg",3.1 ± 1.6 L/h
same,"Cmax, mean±SD","human, in vivo, 100 mg",3425.0 ± 1516.1 ng/mL
same,"Tmax, median (range)","human, in vivo, 100 mg",2.0 (1.0-4.0) h
same,"Vd/F, mean±SD","human, in vivo, 100 mg",39.6 ± 1.1 L
same,"t½, median (range)","human, in vivo, 100 mg",10.4 (6.6-12.9) h
same,"λz, mean±SD","human, in vivo, 100 mg",5.7 ± 3.3 h⁻¹
same,"AUC0-inf, mean±SD","human, in vivo, 120 mg",68 650.9±89 085.5 h*ng/mL
same,"AUC0-t, mean±SD","human, in vivo, 120 mg",55 962.4±66 684.5 h*ng/mL
same,"CL/F, mean±SD","human, in vivo, 120 mg",6.3 ± 5.8 L/h
same,"Cmax, mean±SD","human, in vivo, 120 mg",3348.3 ± 2828.8 ng/mL
same,"Tmax, median (range)","human, in vivo, 120 mg",1.9 (1.8-6.0) h
same,"Vd/F, mean±SD","human, in vivo, 120 mg",88.7 ± 86.2 L
same,"t½, median (range)","human, in vivo, 120 mg",11.3 (6.3-23.8) h
same,"λz, mean±SD","human, in vivo, 120 mg",3.8 ± 2.9 h⁻¹
same,Senaparib exposure (Cmax and AUC) versus dose,"single dose, 80-120 mg",appeared to plateau
